Measured values taken from US7875652B2, “Method and composition for treating pain or tinnitus aureum” (UCB Pharma GmbH, priority 2001, dated 2011).
Marks after values point to notes of the source that are not given here.

Tests used:
[1] = test system: formalin-induced nociception (paw licking); experiment: Subchronic inflammatory nociception in mice (formalin test); assay type: in vivo; conditions: for Nociceptive response induced by formalin: 10, 20, 40 mg/kg i.p.; for nociceptive threshold [s]: late phase (20-30 min), 10 mg/kg i.p.
Protocol: Subchronic inflammatory nocicoetion in mice was induced by the subplantar injection of formalin (0.02 ml of a 5% solution). Nociceptive behaviour (paw licking) was measured and quantified between 0 and 5 min (acute pain) and between 20 and 30 min (subchronic inflammatory pain) after formalin.
(§1) Drugs and experimental design: SPM 927 and GBP were suspended in 1% methylcellulose and administered i.p. at doses of 10 mg/kg, 20 mg/kg and 40 mg/kg. Pre-treatment time was 30 min before pain measurement. One group of animals served as controls and consequently received an injection of solvent (10 ml/kg) and another group of animals received a reference compound (Carrageenan test: 10 mg/kg indomethacin; Formalin test: 10 mg/kg morphine). Each compound was tested in a separate experiment and each experiment included a control and a reference group. 10 rats per group were used in the Carrageenan test and 6 mice per group in the formalin test.

[2] = test system: Carrageenan-induced mechanical hyperalgesia; experiment: Carrageenan-induced mechanical hyperalgesia, paw pressure (Randall-Sellito) test; assay type: in vivo, rats; conditions: for Effect on Carrageenan-induced mechanical hyperalgesia: all doses tested (10, 20, 40 mg/kg i.p.)
Protocol: Carrageenan-induced mechanical hvderalcesia in rats was induced by subplantar injection of a 0.1 ml of a 2% carrageenan suspension and measured 3 h afterwards by the paw pressure (Randall-Sellito) test.
as §1

[3] = test system: chronic constriction injury-induced thermal hyperalgesia; experiment: Chronic constriction injury (CCI) model, thermal hyperalgesia; assay type: in vivo, rat; conditions: 5-40 mg/kg i.p.
Protocol: (§2) The effectiveness of harkoseride in reducing spontaneous chronic pain, mechanical allodynia, and thermal hyperalgesia was tested using the chronic constriction injury (CCI) model of peripheral neuropathy, one of the best characterised in vivo animal models used to study chronic pain due to peripheral nerve injury. In this model, loose ligatures are placed around the sciatic nerve, which produces axonal swelling and a partial deafferentation manifested as a significant but incomplete loss of axons in the distal portion of the peripheral nerve. One of the prominent behaviours seen following sciatic nerve ligation is the appearance of hind paw guarding, thought to be an indication of an ongoing spontaneous chronic pain. Support for this idea is derived from reports of increased spinal cord neural activity, and increased spontaneous neuronal discharge in spinothalamic tract neurons and in the ventrobasal thalamus in the absence of overt peripheral stimulation. In addition to the appearance of spontaneous pain behaviours, several abnormalities in stimulus evoked pain occur as a result of CCI, including thermal hyperalgesia and mechanical allodynia. […]
Thermal hyperalgesia was assessed by means of withdrawal latency in response to radiant heat applied to the subplantar surface of the ligated rat hind paw. […]

[4] = test system: neuropathic pain (CHUNG), tactile stimulation; experiment: Neuropathic pain (CHUNG) test, tactile stimulation on lesioned paw; assay type: in vivo, rat; conditions: tactile and thermal stimulation
Description: The following Tables 8 and 9 show the effects of harkoseride (hereinafter referred to as SPM 927), carbamazepine, levetiracetam, gabapentin and morphine in the neuropathic pain (CHUNG) test in the rat. Eight (8) rats per group were used.

[5] = test system: mechanical allodynia induced by unilateral nerve ligation; experiment: Chronic constriction injury (CCI) model, mechanical allodynia (Von Frey); assay type: in vivo, rat; conditions: 5-40 mg/kg i.p.
Protocol: as §2
Mechanical sensitivity and allodynia of the ligated rat hind paw was quantified by brisk foot withdrawal in response to normally innocuous mechanical stimuli as described previously. […]

[6] = test system: acute spinal thermal nociception; experiment: Tail flick test, rat; assay type: in vivo
Description: Harkoseride was additionally tested for potential activity in acute spinal thermal nociception using the tail flick test. In this model of acute thermal spinal/reflex hyperalgesia radiant heat is applied to the animal's tail approximately 2 cm from the tip and time latency for withdrawal reaction is automatically assessed by an algometer, a defined maximal stimulus time prevents tissue damage. This test is widely used as an assay for the anti-nociceptive efficacy of pharmacological agents and is highly predictive of acute analgesic efficacy in humans.
Results for 20 and 40 mg/kg harkoseride i.p are shown in table 5 [percent anti-nociception, calculated as [{(post-drug latency)−(pre-drug-latency)}/{(max. latency)−(pre-drug latency)}×100]±SEM, n=12/group]. A baseline or pre-drug tail-flick latency was determined by averaging 5 consecutive measurements taken 2 minutes apart. Vehicle (sterile water 0.04 ml/10 g body weight) or harkoseride were then administered and tail flick latencies recorded at 10-minute intervals for the next 60 minutes.

[7] = test system: formalin-induced tonic inflammatory nociceptive behaviour; experiment: Formalin test, rat (weighted behavioural scoring); assay type: in vivo
Protocol: The formalin test is a chemically-induced tonic pain model in which biphasic changes of nociceptive behaviour are assessed and spinal/supraspinal plasticity of nociception is considered as a molecular basis for neuropathic pain particularly during the second (=late) phase of the test, during which most clinically used drugs against neuropathic pain are active.
The compound was tested for anti-nociceptive properties by use of the weighted behavioural scoring method: Freely moving animals underwent observational assessment of the position of the left hind paw according to a rating score scaled 0-3 before and 10, 20, 30 and 40 min after injection of 0.05 ml of sterile 2.5% formalin under the skin on the dorsal surface of the paw.

[8] = test system: spontaneous pain induced by unilateral chronic constriction injury; experiment: Chronic constriction injury (CCI, Bennett-model), spontaneous pain; assay type: in vivo, rat; conditions: 5-40 mg/kg i.p.
Protocol: as §2
Spontaneous pain (ongoing pain without an apparent external stimulus) of the ligated paw was assessed for 5 min following a 10 min acclimation period by use of a rating score (weighted behaviour score scaled 0-5).

Compound	Nociceptive response induced by formalin [1]	Effect on Carrageenan-induced mechanical hyperalgesia [2]	nociceptive threshold [s] ([1]; GBP experiment)	nociceptive threshold [s] ([1]; SPM 927 experiment)	Efficacy on formalin-induced nociception, similar to that of morphine ([1]; mouse, in vivo)	Chronic constriction injury-induced thermal hyperalgesia [3]	Antinociceptive effect relative to reference compound ([2]; vs 10 mg/kg indomethacin)	Potency compared with the reference compounds in the CHUNG test [4]	Intensity of mechanical allodynia induced by unilateral nerve ligation [5]	Effect on the latency of the tail flick reflex ([6]; 20 and 40 mg/kg i.p.)	Anti-nociceptive effect detectable in the tail-flick test ([6]; rat, in vivo)	Formalin-induced tonic inflammatory nociceptive behaviour ([7]; i.p. just prior to formalin injection)	Efficacy in the late phase of the rat formalin test ([7]; late phase)	Level of spontaneous pain induced by unilateral chronic constriction injury [8]
NCC1(CC(=O)O)CCCCC1 [GBP, gabapentin, reference compound]	slightly but not significantly inhibited	no significant effect	–	–	–	–	–	–	–	–	–	–	–	–
CN1CC[C@]23c4c5ccc(O)c4O[C@H]2[C@@H](O)C=C[C@H]3[C@H]1C5 [Morphine, morphine]	–	–	0 ± 0^a s	10 ± 8^a s	–	–	–	–	–	–	–	–	–	–
COC[C@@H](NC(C)=O)C(=O)NCc1ccccc1 [SPM 927, (R)-2-Acetamido-N-benzyl-3-methoxypropionamide]	dose dependently suppressed	full reversal	–	–	near complete reversal	dose dependently reduced	comparable to that of the reference compound Indomethacin	minimum comparable, but usually more potent than the reference compounds	dose dependently reduced	little or no effect	no anti-nociceptive effect	dose dependant reduction	Significant and dose dependent efficacy	did not change
